In patent US20240391954A1, “MC4R AGONIST PEPTIDES” (The Regents of the University of Michigan, priority 2021, published 2024):
Several values for one entry are separate records, joined by “and”; a condition that tells them apart may be missing. Identical values can stand only once. Like-named read-outs stand apart in the source and are kept apart here. Positions of bridges follow the written chain, without caps; N, C: chain ends. Non-standard residues stand in square brackets, D forms with d. Residues, ends and D or L forms follow the SMILES beside them. Nle = CCCC[C@H](N)C(=O)O

Experiments:
[1] = target: T1, human MC3R (Homo sapiens, UniProt P41968); experiment: split-luciferase cAMP sensor assay, agonist mode (measurement window 1), hMC3R; type: cell-based; conditions: for Emax: % maximal activation, read-out: MC3R cAMP % max activation; for MC4R selectivity vs MC3R: MC4R versus MC3R
T1 construct: expressed in transfected cells; host or cells: HEK-293 cells stably expressing the GScAMP22F split-luciferase cAMP sensor (parent reporter line from Promega); MC3R clone generated in-house, G418 selection
T1 sequence (P41968 whole entry): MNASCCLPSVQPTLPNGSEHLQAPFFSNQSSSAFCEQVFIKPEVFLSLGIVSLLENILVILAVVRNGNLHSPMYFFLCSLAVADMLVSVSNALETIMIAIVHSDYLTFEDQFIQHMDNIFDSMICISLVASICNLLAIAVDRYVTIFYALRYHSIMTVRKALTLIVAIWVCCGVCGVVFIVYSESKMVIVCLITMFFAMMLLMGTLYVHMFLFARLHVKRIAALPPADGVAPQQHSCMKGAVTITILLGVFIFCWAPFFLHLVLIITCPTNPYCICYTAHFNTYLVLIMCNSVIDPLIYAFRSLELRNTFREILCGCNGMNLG
Method in brief: (§1)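 EC50 values come from a four-parameter variable-slope fit of luminescence in measurement window 1, capturing direct peptide effects on receptor-expressing cells with a cAMP22f luciferase sensor. Cells were preloaded with 4% D-luciferin, serum-free medium; 20 μM forskolin normalized for cell number and transducer efficiency.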

[2] = target: T2, human MC4R (Homo sapiens, UniProt P32245); experiment: split-luciferase cAMP sensor assay, agonist mode (measurement window 1), hMC4R; type: cell-based; conditions: agonist mode; for Emax: % maximal activation, read-out: MC4R cAMP % max activation
T2 construct: host or cells: HEK-293 cells stably expressing the GScAMP22F split-luciferase cAMP sensor and hMC4R, G418 selection
T2 sequence (P32245 whole entry): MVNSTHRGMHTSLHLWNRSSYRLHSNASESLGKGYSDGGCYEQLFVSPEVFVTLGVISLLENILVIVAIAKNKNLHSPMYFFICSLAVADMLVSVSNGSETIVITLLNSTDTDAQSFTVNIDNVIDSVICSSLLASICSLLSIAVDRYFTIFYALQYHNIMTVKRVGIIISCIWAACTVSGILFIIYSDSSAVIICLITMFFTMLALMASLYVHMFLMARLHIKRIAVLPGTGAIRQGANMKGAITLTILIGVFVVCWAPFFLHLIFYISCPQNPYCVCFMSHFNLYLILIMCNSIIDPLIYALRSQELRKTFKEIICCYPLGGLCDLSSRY
Method in brief: as §1

[3] = target: T3, human MC1R (Homo sapiens, UniProt Q01726); experiment: split-luciferase cAMP sensor assay, agonist mode, hMC1R; type: cell-based; conditions: MC4R versus MC1R
T3 construct: expressed in transfected cells; host or cells: HEK-293 cells stably expressing hMC1R and the GScAMP22F cAMP sensor
T3 sequence (Q01726 whole entry): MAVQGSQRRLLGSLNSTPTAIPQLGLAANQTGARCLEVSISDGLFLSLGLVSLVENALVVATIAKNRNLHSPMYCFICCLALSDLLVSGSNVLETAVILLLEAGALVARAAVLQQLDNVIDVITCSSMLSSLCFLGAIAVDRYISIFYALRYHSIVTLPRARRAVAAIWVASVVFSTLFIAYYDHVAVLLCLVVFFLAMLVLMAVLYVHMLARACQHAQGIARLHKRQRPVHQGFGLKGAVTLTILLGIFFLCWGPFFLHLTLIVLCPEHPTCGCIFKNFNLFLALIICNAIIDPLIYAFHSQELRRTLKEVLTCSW
Method in brief: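 HEK-293 cells stably expressing hMC1R and the GScAMP22F split-luciferase cAMP sensor, preloaded 120 min at 37° C with D-luciferin in serum-free medium. Peptide responses were taken as peak luminescence over 2-13 min minus 2-min baseline, normalized to the α-MSH ECmax. EC50 was obtained from a four-parameter variable-slope fit.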

[4] = Mouse plasma stability; type: in vitro ADME; conditions: 37° C.; for half-life at 1 µM: pooled mouse plasma
Method: FIG. 3. Results of plasma stability testing for control peptides. Compounds shown were incubated in mouse plasma at 37° C. at 1 μM concentrations. 40 ul aliquots were removed at the times indicated and the reactions stopped with the addition of 160 μL cold acetonitrile containing 200 ng/ml of peptide internal standard (IS). The incubation solution was centrifuged at 3500 rpm for 10 minutes to precipitate protein. LC/MS/MS analysis was used to determine the % peptide remaining.
Pooled mouse plasma was prepared and stored at −80° C, prior to use, 396 μL mouse plasma was incubated at 37° C. for 5 minutes in 1.5 mL microcentrifuge tubes. 4 μL of 100 μM test or control compound/peptide was added to each tube and incubated for 0.5, 15, 30, 60, 120, or 240 minutes. An aliquot of 40 μL of each reaction was stopped by the addition of 4 volume of cold acetonitrile containing 200 ng/mL of […] solution was centrifuged at 3500 rpm for 10 minutes to precipitate protein. The supernatant was used for LC/MS/MS analysis. The natural log peak area ratio (compound peak area/internal standard peak area) was plotted against time and the gradient of the line determined.

[5] = Plasma protein binding (Centrifree ultrafiltration); type: in vitro ADME
Method: Solutions of test compound in DMSO were prepared at 1 mM, 100 uM and 10 uM, 5 ul of each solution of test compound was added to 495 uL plasma, and incubated at 25° C. for 5 min. Sample was added to a Centrifree® device, then centrifuged at 2000× g for 20 min to obtain desired filtrate volume. Initial plasma samples and ultrafiltrates were subjected to LC-MS/MS. % Free peptide=(concentration of ultrafiltrates/concentration of plasma)×100%. % Bound=100%−% Free

[6] = Pharmacokinetics: plasma and brain concentration after IP injection; type: in vivo, mouse; conditions: for Brain concentration, individual mice 1-3 / Plasma concentration, individual mice 1-3: individual animals, listed as setmelanotide
Method: FIG. 5. Pharmacokinetic data for an exemplary peptide relative to setmelanotide. Peptides at 1.5 mg/mL in PBS containing 10% DMSO and 10% PEG-400 were given by IP injection (15 mg/kg) to female CD-1 mice (n=15). At the given time points (0.5 h, 2 h, 4 h, 7 h and 24 h), brain samples were taken out and frozen at −80° C. immediately for later preparation and analysis, and blood samples were collected using heparinized calibrated pipettes. Blood samples were centrifuged at 15000 rpm for 10 min. Subsequently, blood plasma was collected from the upper layer. The plasma was frozen at −80° C. for later analysis. Peptide concentrations at times indicated were determined by LC MS/MS, using non-zero standards in blank Plasma and Brain Samples.
The drug at 1.5 mg/mL in PBS containing 10% DMSO and 10% PEG-400 was given by IP injection (15 mg/kg). At the given time points (0.5 h, 2 h, 4 h, 7 h and 24 h), brain samples were taken out and frozen at −80° C. immediately for later preparation and analysis, and blood samples were collected using heparinized calibrated pipettes. Blood samples were centrifuged at 15000 rpm for 10 min. Subsequently, blood plasma was collected from the upper layer. The plasma was frozen at −80° C. for later analysis.
The analytical curves were constructed using non-zero standards in the blank Plasma and Brain Samples. A blank sample (matrix sample processed without internal standard) was used to exclude contamination. The linear regression analysis of CTX1227/setmelanotide were performed by plotting the peak area ratio (y) against the CTX1227/setmelanotide concentration (x) in ng/mL, respectively.

[7] = target: human MC3R (human, UniProt P41968 1-323); experiment: cell-based or functional assay
Chain of human MC3R (human, UniProt P41968 1-323) (P41968 whole entry): as the sequence (P41968 whole entry) above

[8] = target: T4, human MC4R receptor (human, UniProt P32245 1-332); experiment: cell-based or functional assay
T4 sequence (P32245 whole entry): as the sequence (P32245 whole entry) above

[9] = target: T4, human MC4R receptor; experiment: cell-based or functional assay; remark: listed apart in the source
[10] = target: plasma protein; experiment: plasma ultrafiltration (Centrifree), LC-MS/MS; peptide 0.1 uM
[11] = target: plasma protein; experiment: plasma ultrafiltration (Centrifree), LC-MS/MS; peptide 1.0 uM
[12] = target: plasma protein; experiment: plasma ultrafiltration (Centrifree), LC-MS/MS; peptide 10.0 uM

| Molecule | Emax ([1]; agonist mode) | MC4R selectivity vs MC3R [1] | Emax [2] | MC4R selectivity vs MC1R [3] | half-life at 1 µM [4] | fraction unbound at 5 min, 0.1 µM ([5]; 0.1 uM) | fraction unbound at 5 min, 1 µM ([5]; 1.0 uM) | fraction unbound at 5 min, 10 µM ([5]; 10.0 uM) | further results |
| --- | --- | --- | --- | --- | --- | --- | --- | --- | --- |
| CC(=O)N[C@@H](CCCNC(=N)N)C(=O)N[C@H]1CSSC[C@@H](C(N)=O)NC(=O)[C@H](Cc2c[nH]c3ccccc23)NC(=O)[C@H](CCCNC(=N)N)NC(=O)[C@@H](Cc2ccccc2)NC(=O)[C@H](CCCNC(N)=O)NC(=O)[C@@H](C)NC1=O [CTX-1285, Arg-cyclo(Cys-D-Ala-Cit-D-Phe-Arg-Trp-Cys)] | 28% | 2.9 | 94% | 134 | > 4 h | 0.55 | 0.61 | 0.59 | EC50 ([2]; HEK-293 cells stably expressing hMC4R, read-out: MC4R cAMP EC50): 1.7 nM |
| CC(=O)N[C@@H](CCCNC(=N)N)C(=O)N[C@H]1CSSC[C@@H](C(N)=O)NC(=O)[C@@H](Cc2c[nH]c3ccccc23)NC(=O)[C@H](CCCNC(=N)N)NC(=O)[C@@H](Cc2ccccc2)NC(=O)[C@H](CCCNC(=N)N)NC(=O)[C@H](C)NC1=O [CTX-1268, Arg-cyclo(Cys-Ala-Arg-D-Phe-Arg-D-Trp-Cys)] (Ac-RCAR[dF]R[dW]C-NH2; disulfide 2-8) | 44% | 30 | 96% | 6.59 | – | – | – | – | half-life [4]: 1.75 h; fraction unbound at 0.1 uM ([5]; 0.1 uM): 0.48; fraction unbound ([5]; 1.0 uM, read-out: Protein Binding 1.0 uM (converted)): 0.42; fraction unbound ([5]; 10.0 uM, read-out: Protein Binding 10.0 uM (converted)): 0.38 |
| CC(=O)N[C@@H](CCCN=C(N)N)C(=O)N[C@H]1CSSC[C@H](C(N)=O)NC(=O)[C@H](Cc2c[nH]c3ccccc23)NC(=O)C(CCCN=C(N)N)NC(=O)[C@@H](Cc2ccccc2)NC(=O)[C@H](Cc2cnc[nH]2)NC(=O)[C@@H](C)NC1=O (stereo partly drawn) [CTX-1200, Arg-cyclo(Cys-D-Ala-His-D-Phe-Arg-Trp-Cys), reference compound] | – | – | – | – | > 3 h | 0.57 | 0.43 | 0.39 | Brain concentration, individual mice 1-3 ([6]; IP 15 mg/kg, 0.5 h, brain, 15 mg/kg): 306.5 ng/g and 231.5 ng/g and 247.5 ng/g; Plasma concentration, individual mice 1-3 ([6]; IP 15 mg/kg, 0.5 h, plasma, 15 mg/kg): 67 µg/mL and 37.2 µg/mL and 25.8 µg/mL; Brain concentration, individual mice 1-3 ([6]; IP 15 mg/kg, 2 h, brain, 15 mg/kg): 207.5 ng/g and 121.5 ng/g and 220.5 ng/g; Plasma concentration, individual mice 1-3 ([6]; IP 15 mg/kg, 2 h, plasma, 15 mg/kg): 7.19 µg/mL and 11 µg/mL and 4.58 µg/mL; Brain concentration, individual mice 1-3 ([6]; IP 15 mg/kg, 4 h, brain, 15 mg/kg): BLQ; Plasma concentration, individual mice 1-3 ([6]; IP 15 mg/kg, 4 h, plasma, 15 mg/kg): 0.455 µg/mL and 9.59 µg/mL and 0.0178 µg/mL; Brain concentration, individual mice 1-3 ([6]; IP 15 mg/kg, 7 h, brain, 15 mg/kg): BlQ and BLQ (2×); Plasma concentration, individual mice 1-3 ([6]; IP 15 mg/kg, 7 h, plasma, 15 mg/kg): 0.0642 µg/mL and 0.0693 µg/mL and 0.0553 µg/mL; Brain concentration, individual mice 1-3 ([6]; IP 15 mg/kg, 24 h, brain, 15 mg/kg): BlQ and BLQ (2×); Plasma concentration, individual mice 1-3 ([6]; IP 15 mg/kg, 24 h, plasma, 15 mg/kg): 0.00804 µg/mL and 0.00737 µg/mL and 0.00881 µg/mL; tissue level at time at 0.5 h ([6]; female, CD-1, mouse, brain, ip, 15 mg/kg, mice, 0.5 h, mean of 3): 262 ng/g; tissue level at time at 2 h ([6]; female, CD-1, mouse, brain, ip, 15 mg/kg, mice, 2 h, mean of 3): 183 ng/g; level at 0.5 h ([6]; female, CD-1, mouse, mice, IP 15 mg/kg, 0.5 h, plasma, mean of 3): 43.3 µg/mL; level at 2 h ([6]; female, CD-1, mouse, mice, IP 15 mg/kg, 2 h, plasma, mean of 3): 7.59 µg/mL; level at 4 h ([6]; female, CD-1, mouse, mice, IP 15 mg/kg, 4 h, plasma, mean of 3): 3.35 µg/mL; level at 7 h ([6]; female, CD-1, mouse, mice, IP 15 mg/kg, 7 h, plasma, mean of 3): 0.0629 µg/mL; level at 24 h ([6]; female, CD-1, mouse, mice, IP 15 mg/kg, 24 h, plasma, mean of 3, read-out: Plasma concentration, Mean): 0.00807 µg/mL |
| CCCC[C@H](NC(=O)[C@H](CCCNC(=N)N)NC(C)=O)C(=O)N[C@H]1CSSC[C@@H](C(N)=O)NC(=O)[C@H](Cc2c[nH]c3ccccc23)NC(=O)[C@H](CCCNC(=N)N)NC(=O)[C@@H](Cc2ccccc2)NC(=O)[C@H](CCCNC(=N)N)NC1=O [CTX-1228, Arg-Nle-cyclo(Cys-Arg-D-Phe-Arg-Trp-Cys)] (Ac-R[Nle]CR[dF]RWC-NH2; disulfide 3-8 (inferred)) | 93% | 8.38 | 102% | 3.16 | 0.917 h | 0.63 | 0.61 | 0.61 | EC50 ([1]; HEK-293 cells stably expressing hMC3R, agonist mode, read-out: MC3R cAMP EC50): 1.6 nM |
| CC(=O)N[C@@H](CCCNC(=N)N)C(=O)N[C@H]1CSSC[C@@H](C(N)=O)NC(=O)[C@H](Cc2c[nH]c3ccccc23)NC(=O)[C@H](CCCNC(=N)N)NC(=O)[C@@H](Cc2ccccc2)NC(=O)[C@H](CCCNC(=N)N)NC(=O)[C@@H](C)NC1=O [CTX-1211, Arg-cyclo(Cys-D-Ala-Arg-D-Phe-Arg-Trp-Cys)] (Ac-RC[dA]R[dF]RWC-NH2; disulfide 2-8 (inferred)) | 91% | 5.49 | 96% | 3.12 | > 3 h | 0.49 | 0.37 | 0.39 | – |
| Ac-R[Nle]CR[dF]RWC-NH2 (disulfide 3-8; SMILES CCCC[C@H](NC(=O)[C@H](CCCNC(=N)N)NC(C)=O)C(=O)N[C@H]1CSSC[C@@H](C(N)=O)NC(=O)[C@H](Cc2c[nH]c3ccccc23)NC(=O)[C@H](CCCNC(=N)N)NC(=O)[C@@H](Cc2ccccc2)NC(=O)[C@H](CCCNC(=N)N)NC1=O) [CTX-1228] | – | – | – | – | – | – | – | – | % max activation [7]: 93%; cAMP EC50 [7]: 1.6 nM; % max activation [8]: 102%; cAMP EC50 [8]: 0.2 nM; MC4R selectivity vs MC1R [9]: 3.16; MC4R selectivity vs MC3R [9]: 8.38; Protein Binding (%) [10]: 37%; Protein Binding (%) [11]: 39%; Protein Binding (%) [12]: 39% |
